Like-named read-outs stand apart in the source and are kept apart here.

A word on the half-life: it is the time in which the quantity being followed falls by half. The low end stands for rapid decline, the high end for slow decline. As usually defined, the bioavailability is the share of a dose that reaches the circulation, judged against a reference dose that is usually intravenous. In general, Cmax refers to the peak of the concentration-time curve. The IC50 is the concentration at which inhibition is half-maximal.

The nature of series [1]: Pharmacokinetic (PK) assay in mice. Type of series: in vivo. To be noted: CD-1 mice; for AUC(0-t): read-out: AUC0-24 h. As to the method: The PK of each compound was determined as follows: 6 CD-1 mice (obtained from Shanghai Lingchang Biotechnology Co., Ltd.) were divided into two groups, 3 mice in each group. […] Blood samples were collected from saphenous vein of lower leg in each group at 0, 0.083, 0.25, 0.5, 1, 2, 4, 6, 8 and 24 h after administration. Approximately 40 μL of the blood samples were collected in anticoagulant tubes containing EDTA-K2. Immediately after collection, the tubes were inverted at least 5 times to ensure adequate mixing, and then placed on ice. The blood samples collected at each time point were centrifuged at 4° C., 8000 rpm for 5 minutes to obtain plasma. Another 1.5 mL centrifuge tube was marked with the compound name, animal number, and time point, and the plasma was transferred to this tube. The plasma was stored at −80° C. until analysis.
Compound concentrations in plasma were determined by UPLC-MS/MS method, and the pharmacokinetic parameters were calculated by Phoenix WinNolin 6.4 pharmacokinetic software on the obtained data.

For series [2], the system named is LOVO cells. Put plainly: Cell proliferation assay (CellTiter-Glo). Type of series: cell-based. The note with it: Homo sapiens, 96 hours. As to the method:
The cell proliferation inhibition effect of the compound of the invention was tested using CellTiter-Glo™ cell viability assay kit. This kit uses luciferase as the detector. During the luminescence process, the luciferase requires the participation of ATP. CellTiter-Glo™ reagent was added to the cell culture medium, and the luminescence value was measured. The light signal is proportional to the amount of ATP present in the system, and ATP positively correlates with the number of viable cells present, thus the cell proliferation activity is measured.
Cell culture and seeding: LOVO cells in logarithmic growth phase (human colon carcinoma cells) (ATCC CCL-229) were harvested and counted using a platelet counter. Trypan blue exclusion method was used to detect the cell viability to ensure that the cell viability was above 90%. 90 μL of cell suspension (RPMI1640+10% fetal bovine serum) was added to a 96-well transparent flat-bottom black-wall plate (Thermo, 165305) respectively, and the cell concentration was adjusted to 3000/well/90 μl. Cells in the 96-well plate were incubated overnight at 37° C., 5% CO2 with 95% humidity (Thermo, Model 3100 Series).
Firstly, DMSO was used as the solvent to prepare 10 mM mother solution of the test compounds, and then PBS was used to dilute 100 times to prepare a solution of 10 times of final concentration, the highest concentration was 100 μM. 10 μL solution of the test compounds was added to each well of the 96 well plate inoculated with cells, namely the solution was further diluted 10 times to reach the final concentration of 10 μM. Starting from 10 μM, the final concentration of the test compound was 3-fold serially diluted, with 9 concentrations in total with 3 triplicates for each concentration. The 96 well plates with the test compounds and cells were incubated at 37° C., 5% CO2 and 95% humidity for 96 hours, and then CellTiter Glo analysis was performed.
CellTiter-Glo Reagents (CellTiter Glo R Luminescent Cell Viability Assay, Promega, G7572) were melted and the 96-well plates were equilibrated to room temperature for 30 minutes. An equal volume of CellTiter-Glo solution was added to each well, and the cells were lysed by shaking on the fixed orbit shaker for 5 minutes. The assay plates were left at room temperature for 20 minutes to stabilize the luminescence signal, and the luminescence signals were read using the SpectraMax multi-labeled microplate detector (MD, M3).
Data were analyzed using GraphPad Prism 7.0 software, fitted with non-linear S-curve regression to derive the dose-response curves, and IC50 values were calculated therefrom.
Cell survival rate (%)=(LumDrug to be tested−LumCulture medium control)/(LumCell control−LumCulture medium control)×100%
Background: Cellular ATP, detected with luciferase, serves as a proxy for viable cell number.

Series [3] deals with ATR (Homo sapiens (Human), UniProt Q13535). Put plainly: ATR kinase inhibition assay (HTRF). Type of series: biochemical. The note with it: p53 substrate, ATP 150 nM. As to the method: This experiment adopted Homogeneous time-resolved fluorescence technology (HTRF®) of Cisbio Company for assay.
Chain of ATR (Q13535 whole entry): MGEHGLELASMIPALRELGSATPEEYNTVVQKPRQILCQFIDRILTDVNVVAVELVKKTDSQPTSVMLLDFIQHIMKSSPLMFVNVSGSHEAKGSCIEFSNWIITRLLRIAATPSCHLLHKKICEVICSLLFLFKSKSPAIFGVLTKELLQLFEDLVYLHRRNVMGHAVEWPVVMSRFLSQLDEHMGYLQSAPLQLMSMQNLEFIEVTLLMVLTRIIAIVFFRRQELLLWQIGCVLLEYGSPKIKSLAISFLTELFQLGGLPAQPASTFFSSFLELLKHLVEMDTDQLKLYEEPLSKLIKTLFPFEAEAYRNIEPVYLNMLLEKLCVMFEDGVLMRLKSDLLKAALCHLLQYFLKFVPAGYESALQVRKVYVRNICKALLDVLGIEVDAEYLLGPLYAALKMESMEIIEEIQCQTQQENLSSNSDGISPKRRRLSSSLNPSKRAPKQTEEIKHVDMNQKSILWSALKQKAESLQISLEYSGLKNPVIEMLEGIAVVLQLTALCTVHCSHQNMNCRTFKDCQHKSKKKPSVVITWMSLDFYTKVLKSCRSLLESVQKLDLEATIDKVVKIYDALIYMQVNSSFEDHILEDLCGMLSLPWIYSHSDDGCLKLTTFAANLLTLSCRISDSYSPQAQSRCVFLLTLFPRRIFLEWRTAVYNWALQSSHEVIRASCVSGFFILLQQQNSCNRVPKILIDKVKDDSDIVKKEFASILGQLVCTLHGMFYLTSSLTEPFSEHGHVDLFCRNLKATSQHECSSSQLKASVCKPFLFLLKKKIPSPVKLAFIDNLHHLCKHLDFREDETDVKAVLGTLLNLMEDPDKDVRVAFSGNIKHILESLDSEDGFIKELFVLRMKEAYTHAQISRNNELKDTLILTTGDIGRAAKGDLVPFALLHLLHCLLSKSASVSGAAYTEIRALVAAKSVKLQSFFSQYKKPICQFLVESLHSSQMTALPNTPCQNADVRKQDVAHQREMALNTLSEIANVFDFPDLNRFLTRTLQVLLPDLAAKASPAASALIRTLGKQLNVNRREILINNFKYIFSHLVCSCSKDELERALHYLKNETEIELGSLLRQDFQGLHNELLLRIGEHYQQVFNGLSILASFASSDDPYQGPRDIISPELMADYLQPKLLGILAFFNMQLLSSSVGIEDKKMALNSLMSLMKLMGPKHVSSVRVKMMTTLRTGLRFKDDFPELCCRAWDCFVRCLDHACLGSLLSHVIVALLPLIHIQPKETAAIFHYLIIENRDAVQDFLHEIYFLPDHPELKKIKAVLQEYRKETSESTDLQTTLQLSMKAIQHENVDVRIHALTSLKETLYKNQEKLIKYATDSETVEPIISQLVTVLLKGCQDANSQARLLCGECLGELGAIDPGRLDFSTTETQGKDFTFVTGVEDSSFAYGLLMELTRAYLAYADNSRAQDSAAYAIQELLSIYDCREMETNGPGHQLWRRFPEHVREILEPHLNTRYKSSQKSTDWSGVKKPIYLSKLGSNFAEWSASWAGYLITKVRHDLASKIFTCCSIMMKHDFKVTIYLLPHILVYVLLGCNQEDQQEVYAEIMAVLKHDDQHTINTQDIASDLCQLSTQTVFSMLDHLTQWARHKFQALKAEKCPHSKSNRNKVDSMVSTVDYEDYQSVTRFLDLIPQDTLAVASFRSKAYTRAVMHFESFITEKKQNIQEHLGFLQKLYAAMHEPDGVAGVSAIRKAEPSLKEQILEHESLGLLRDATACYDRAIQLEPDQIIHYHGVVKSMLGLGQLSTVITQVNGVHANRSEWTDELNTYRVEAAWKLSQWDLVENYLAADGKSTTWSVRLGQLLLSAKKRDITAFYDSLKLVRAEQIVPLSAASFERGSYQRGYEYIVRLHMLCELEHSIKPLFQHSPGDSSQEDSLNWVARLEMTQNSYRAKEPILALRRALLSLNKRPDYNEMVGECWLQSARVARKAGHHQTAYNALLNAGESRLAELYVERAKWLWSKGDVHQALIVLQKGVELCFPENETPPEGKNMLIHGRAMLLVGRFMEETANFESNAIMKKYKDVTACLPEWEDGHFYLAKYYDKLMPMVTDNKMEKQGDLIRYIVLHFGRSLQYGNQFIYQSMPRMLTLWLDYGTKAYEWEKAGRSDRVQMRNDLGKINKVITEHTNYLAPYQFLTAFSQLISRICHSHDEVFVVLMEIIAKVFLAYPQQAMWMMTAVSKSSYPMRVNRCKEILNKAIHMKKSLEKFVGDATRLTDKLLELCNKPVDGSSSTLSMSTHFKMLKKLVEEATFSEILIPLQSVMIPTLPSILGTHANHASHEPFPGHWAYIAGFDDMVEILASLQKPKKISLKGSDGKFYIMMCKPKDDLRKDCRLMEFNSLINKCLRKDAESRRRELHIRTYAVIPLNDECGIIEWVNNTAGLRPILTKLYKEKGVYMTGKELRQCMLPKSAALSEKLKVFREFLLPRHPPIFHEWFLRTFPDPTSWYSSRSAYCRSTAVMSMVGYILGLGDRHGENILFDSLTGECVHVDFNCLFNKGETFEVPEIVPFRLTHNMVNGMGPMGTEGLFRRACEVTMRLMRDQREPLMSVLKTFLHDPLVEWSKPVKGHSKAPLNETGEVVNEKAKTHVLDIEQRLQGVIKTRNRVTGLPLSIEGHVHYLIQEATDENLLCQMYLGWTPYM
Chain of ATR (Q8WXE1 whole entry partner): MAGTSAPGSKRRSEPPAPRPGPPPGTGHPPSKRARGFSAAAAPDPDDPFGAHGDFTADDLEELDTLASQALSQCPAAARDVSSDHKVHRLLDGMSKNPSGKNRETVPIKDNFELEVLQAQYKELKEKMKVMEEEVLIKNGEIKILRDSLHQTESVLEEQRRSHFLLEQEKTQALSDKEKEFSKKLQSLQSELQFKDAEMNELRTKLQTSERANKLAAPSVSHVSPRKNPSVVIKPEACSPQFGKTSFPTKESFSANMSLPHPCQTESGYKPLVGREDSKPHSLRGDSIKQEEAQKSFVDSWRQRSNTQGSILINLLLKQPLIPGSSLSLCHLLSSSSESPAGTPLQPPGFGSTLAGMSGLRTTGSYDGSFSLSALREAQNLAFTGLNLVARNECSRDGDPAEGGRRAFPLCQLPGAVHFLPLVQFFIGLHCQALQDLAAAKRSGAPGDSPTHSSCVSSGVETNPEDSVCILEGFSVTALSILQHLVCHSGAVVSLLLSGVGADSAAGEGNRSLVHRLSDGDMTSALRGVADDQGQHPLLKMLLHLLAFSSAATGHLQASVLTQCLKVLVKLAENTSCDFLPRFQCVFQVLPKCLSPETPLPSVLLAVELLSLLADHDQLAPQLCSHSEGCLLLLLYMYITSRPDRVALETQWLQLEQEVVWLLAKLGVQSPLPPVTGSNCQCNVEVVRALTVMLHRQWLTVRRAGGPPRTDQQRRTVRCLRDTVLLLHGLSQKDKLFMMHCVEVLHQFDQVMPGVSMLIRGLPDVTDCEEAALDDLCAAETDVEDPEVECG
Experiment method: buffers were prepared as follows:
Preparation of solutions of the test compounds: The example compounds shown in the table below were prepared into solutions using DMSO as solvent, the stock solution typically being 10 mM. The maximum starting concentration in this experiment was 3 μM, DMSO 3-fold serial dilutions for concentrations, the serially diluted solution was added to each well of the corresponding 384-well plate (geriner bio-one, Cat #784075) to give final concentrations of 3000, 1000, 333, 111, 37, 12.3, 4.12, 1.37, 0.457, 0.152 nM, respectively, and the corresponding amount of DMSO was added to the additional wells to be used as negative or positive control wells, respectively.
The enzyme and substrate were separately dissolved and diluted in two tubes with the buffer prepared above at the following concentrations:
5 μL of the ATR protein solution from tube A was added to the compound-containing wells and the negative control wells in the assay plates using an electric multichannel pipettor, and the same volume of the prepared buffer (medium only, no enzyme) was added to the positive control wells. The plates were centrifuged for one minute at 1000 rpm, and then placed in an incubator at 25° C. for 15 minutes. 5 μL of the substrate mix solution from tube B was added to the positive control well, negative control well and the compound-containing well of the assay plates in the same manner, centrifuged and incubated at 25° C. for 90 minutes.
During the reaction, after ATR phosphorylated the substrate p53, two antibodies were added. Among them, anti-phospho-p53-Eu, as an energy donor, can specifically bind to the phosphorylation site of p53, while anti-GST-d2, as an energy receptor, can specifically bind to the GST-tagged p53. Upon excitation by a laser with certain wavelength (the excitation wavelength in this experiment is 340 nm), the energy donor can emit emission light of 615 nm, and when the energy donor and the energy receptor are close enough in space (that is, two antibodies are connected to p53 at the same time), energy transfer can occur between the energy donor and the energy receptor, so that the energy receptor can emit emission light of 665 nm. The two emission lights were detected by a plate reader, and the ratio of the signals at 665 nm and 615 nm was calculated. The IC50 of the samples tested can be obtained by plotting and calculation.
10 μL per well of the detection solution was added to the positive control, negative control and compound wells of the assay plate using an electric multichannel pipette, centrifuged and incubated overnight at 4° C., and read with the plate reader Envision 2104.
Compound inhibition rate was calculated using interpolation. The mean values of the positive and negative controls were calculated respectively, and the following formula was used to calculate the inhibition rates of the compounds:
Inhibition rate Minimum response+(Compound concentration ^Curve slope)*(Maximum response−Minimum response)/(Compound concentration^Curve slope+Half inhibition concentration ^Curve slope)
The IC50 value of each compound to enzyme activity was obtained.
A general note: TR-FRET usually uses a lanthanide donor and a delayed reading to cut background.

Series [4] can be described thus: Metabolic stability in mouse liver microsomes. Type of series: in vitro ADME, CD-1 mice. The note with it: for half-life at 1 μM: CD-1, 1 μM compound; for microsomal CLint at 1 μM: CD-1, read-out: CLint(mic). As to the method:
(§1) Drug-like Properties: Concepts, Structure Design and Methods: from ADME to Toxicity Optimization. […] Screen. […] After incubation for appropriate time (such as 5, 10, 20, 30 and 60 minutes), samples were collected, and an appropriate termination solution (glacial acetonitrile containing 200 ng/mL tolbutamide and 200 ng/mL labetalol (i.e. acetonitrile at 4° C.)) was added to stop the reaction. Sample treatment (n=1): each appropriate sample was added, vortexed and centrifuged at high speed. The supernatants were collected, and detected the substrate by HPLC-MS/MS. The peak area at the 0 min was set as 100%. The peak areas at other time points were converted to percentages of the remaining amount. The natural logarithms of the percentage of remaining amount at each time point was plotted against the incubation time, and the slope (−k) was calculated. Then, Clint (μL/min/mg) and half-life (T½, min) of the compounds were calculated following the equation: Inherent clearance rate (Clint)=(k*Volume of incubation solution)/Mass of liver microsomes.
A general note: Liver microsomes are a subcellular fraction often used to study metabolism.

The nature of series [5]: Metabolic stability in human liver microsomes. The series is classed as in vitro ADME. The note with it: for half-life at 1 μM: 1 μM compound; for microsomal CLint at 1 μM: read-out: CLint(mic). As to the method: as §1

In series [1] (IV dose 1 mg/kg), `C[C@@H]1COCCN1c1cc(N2CC3CCC(C2)O3)nc2c1cnn2-c1cc[nH]n1` [Example 5, 3-(4-((R)-3-methylmorpholino)-1-(1H-pyrazol-3-yl)-1H-pyrazolo[3,4-b]pyridin-6-yl)-8-oxa-3-azabicyclo[3.2.1]octane] displayed a CL_obs of 6.15 mL/min/kg. Moreover, the half-life in series [1] (mouse, plasma, IV dose 1 mg/kg) is 3.45 h. Moreover, the Vd in series [1] (mouse, plasma, IV dose 1 mg/kg, read-out: Vss) stood at 0.75 L/kg. This molecule also had a half-life in series [1] (mouse, plasma, Po dose 5 mg/kg) of 2.58 h. The molecule also returned a bioavailability in series [1] (mouse, plasma, Po dose 5 mg/kg vs IV dose 1 mg/kg) of 69%. Further, in series [1] (mouse, IV dose 1 mg/kg, plasma), the C0 was 2180 ng/mL and the AUC(0-t) was determined as 2700 ng·h/mL. In series [1] (mouse, Po dose 5 mg/kg, plasma), the Cmax is 3020 ng/mL and the AUC(0-t) is 9330 ng·h/mL. In series [2], this molecule had an IC50 of 384 nM. Further, in series [3], the concentration for half-maximal inhibition (IC50) was determined as 8.2 nM. For the same molecule, in series [4], the half-life at 1 μM was 1.12 h, the microsomal CLint at 1 μM was found to be 20.5 µL/min/mg and the “Remain % (T = 60 min)” value is given as 56.6%. Besides, in series [5], the half-life at 1 μM is above 2.42 h, the “Remain % (T = 60 min)” value is 77.1% and the microsomal CLint at 1 μM was below 9.6 µL/min/mg.
For the molecule `c1cc(-c2ncc3c(N4CC5CCC(C4)O5)cc(N4CC5CCC(C4)O5)nn23)n[nH]1` [Example 6, 3-(4-(8-oxa-3-azabicyclo[3.2.1]octan-3-yl)-7-(1H-pyrazol-3-yl)imidazo[1,5-b]pyridazin-2-yl)-8-oxa-3-azabicyclo[3.2.1]octane], inhibition in series [2] was half-maximal at 97 nM (IC50). This molecule also returned a half-inhibitory concentration (IC50) in series [3] of 13.2 nM. Besides, in series [4], the half-life at 1 μM stood at 0.56 h, the microsomal CLint at 1 μM stood at 41.3 µL/min/mg and the “Remain % (T = 60 min)” value is 30.7%. For the same molecule, in series [5], the half-life at 1 μM was above 2.42 h, the “Remain % (T = 60 min)” value turned out to be 74.8% and the microsomal CLint at 1 μM is below 9.6 µL/min/mg.
`Cn1nccc1-c1cc(N2CC3CCC(C2)O3)nc2c(-c3cc[nH]n3)cnn12` [Example 26, 3-(7-(1-methyl-1H-pyrazol-5-yl)-3-(1H-pyrazol-3-yl)pyrazolo[1,5-a]pyrimidin-5-yl)-8-oxa-3-azabicyclo[3.2.1]octane]: the IC50 in series [2] was 1270 nM; in series [3] it was 57.7 nM.
On the same counts, the results for `CC(=O)N1CCN(c2cc(N3C[C@H]4CC[C@@H](C3)O4)nn3c(-c4cc[nH]n4)ncc23)[C@H](C)C1` [Example 29, 1-((R)-4-(2-((1R,5S)-8-oxa-3-azabicyclo[3.2.1]octan-3-yl)-7-(1H-pyrazol-3-yl)imidazo[1,5-b]pyridazin-4-yl)-3-methylpiperazin-1-yl)ethan-1-one] are 488 nM and 4.5 nM.
On the same counts, the results for `C[C@@H]1CC(F)(F)CCN1c1cc(N2CC3CCC(C2)O3)nn2c(-c3cc[nH]n3)ncc12` [Example 31, 3-(4-((R)-4,4-difluoro-2-methylpiperidin-1-yl)-7-(1H-pyrazol-3-yl)imidazo[1,5-b]pyridazin-2-yl)-8-oxa-3-azabicyclo[3.2.1]octane] are 158 nM and 3.9 nM.
For `C[C@H]1CC(F)(F)CCN1c1cc(N2CC3CCC(C2)O3)nn2c(-c3cc[nH]n3)ncc12` [Example 32, 3-(4-((S)-4,4-difluoro-2-methylpiperidin-1-yl)-7-(1H-pyrazol-3-yl)imidazo[1,5-b]pyridazin-2-yl)-8-oxa-3-azabicyclo[3.2.1]octane], in that order: 156 nM and 5.6 nM.
For `CC(=O)N1CCN(c2cc(N3C[C@H]4CC[C@@H](C3)O4)nc3c2cnn3-c2cc[nH]n2)[C@H](C)C1` [Example 34, 1-((R)-4-(6-((1R,5S)-8-oxa-3-azabicyclo[3.2.1]octan-3-yl)-1-(1H-pyrazol-3-yl)-1H-pyrazolo[3,4-b]pyridin-4-yl)-3-methylpiperazin-1-yl)ethan-1-one], the figures for the IC50 in series [2] and in series [3] were 424 nM and 7.6 nM, respectively.
On the same counts, the results for `OCC1COCCN1c1cc(N2C[C@H]3CC[C@@H](C2)O3)nc2c1cnn2-c1cc[nH]n1` (stereo partly drawn) [Example 35, (4-(6-((1R,5S)-8-oxa-3-azabicyclo[3.2.1]octan-3-yl)-1-(1H-pyrazol-3-yl)-1H-pyrazolo[3,4-b]pyridin-4-yl)morpholin-3-yl)methanol] are 522 nM and 15.3 nM.
For `CC1(C)COCCN1c1cc(N2CC3CCC(C2)O3)nc2c(-c3ccn[nH]3)cnn12` [Example 36, 3-(7-(3,3-dimethylmorpholino)-3-(1H-pyrazol-5-yl)pyrazolo[1,5-a]pyrimidin-5-yl)-8-oxa-3-azabicyclo[3.2.1]octane], in that order: 148 nM and 6.2 nM.

Source of the values: patent US20240294550A1, “8-OXA-3-AZABICYCLO[3.2.1]OCTANE COMPOUNDS OR SALT THEREOF, AND PREPARATION METHOD AND USE THEREOF” (LITTDD MEDICINES LTD, priority 2021, published 2024).
